We go through 1 compound from ChEMBL document CHEMBL3352656 (Bioorg Med Chem Lett, 2015).

The nature of data set [1]: Mean residence time in Wistar rat at 0.4 mg/kg, iv by HPLC-MS/MS method. The class given is ADME, organism-based. Further details: dose 0.4 mg/kg, route intravenous. The following applies: in vivo.
The nature of data set [2]: Permeability from apical to basolateral side in human Caco2 cells by HPLC-MS/MS method. Type of data set: ADME, cell-based. Conditions: Caco-2, read-out: permeability.
A short description of data set [3]: Volume of distribution at steady state in Wistar rat at 0.4 mg/kg, iv by HPLC-MS/MS method. Type of data set: ADME, organism-based. Further details: dose 0.4 mg/kg, route intravenous. The following applies: in vivo, read-out: Vdss.
The nature of data set [4]: Permeability from basolateral to apical side in human Caco2 cells by HPLC-MS/MS method. Type of data set: ADME, cell-based. The following applies: Caco-2, read-out: permeability. In general terms: Caco-2 monolayers are a common model of the intestinal barrier.
A short description of data set [5]: Oral bioavailability in Wistar rat at […] by HPLC-MS/MS method. Type of data set: ADME, organism-based. Conditions: in vivo.

One may read the MRT as the average time that molecules of a dose stay in the body. By bioavailability is commonly meant dose-corrected exposure relative to a reference, in per cent. Lower therefore signals little systemic uptake.

In the case of `CC(C)(C)c1cc(NC(=O)[C@@H]2CCCCN2C(=O)N2CCS(=O)(=O)CC2)no1`, the MRT in data set [1] was 36 min. For the same compound, in data set [2], the Papp A→B was found to be 20 ×10⁻⁶ cm/s. Besides, the Vd in data set [3] is 0.5 L/kg. The Papp B→A in data set [4] stood at 22 ×10⁻⁶ cm/s. In addition, the bioavailability in data set [5] is 62%.
